These results are taken from US9045563B2, “CXC chemokine receptor 4 (CXCR4) antagonistic polypeptide” (priority 2007, dated 2015).

One may read the Ki as a measure of affinity in units of concentration, obtained from inhibition or displacement. A lower Ki goes with higher affinity.

In experiment [1] the test system is CCR5 tropic HIV-1 variants. In words: Infection of TZM-bl cells by R5 tropic HIV-1 variants, GalScreen. It is filed as cell-based. How it is done: (§1) 5000 TZM-bl cells were seeded in 100 μl of DMEM (10% FCS, 100 U/ml of penicillin G and 100 μg/ml of streptomycin sulfate). ALB408-423 was dissolved in PBS (10 mg/ml). One day later, 20 μl serial dilutions of ALB408-423 in PBS were added to cells and cells were subsequently infected with 0.5 ng of p24 antigen HIV-1 in a total volume of 200 μl. HIV-1 molecular clones differing in coreceptor tropism were used and generated as described (Papkalla et al., J. Virol. 76: 8455-9, 2002).
(§2) FIG. 3: Chemically synthesized ALB408-423 specifically blocks X4 tropic HIV-1 infection. TZM-bl cells containing indicated dilutions of peptide were infected with HIV-1 variants differing in their coreceptor tropism. 3 days later Gal Screen assay was used to measure infection rates. […] B) Infection rates in the presence of 500 μg/ml ALB408-423 showing that the peptide specifically blocks X4 but not R5 tropic HIV-1 infection. Data shown are mean values±standard deviation derived from triplicate infections relative to PBS containing cells (100% infection).
(§3) After 3 days, infection was detected using GalScreen assay (TROPIX) (example 1). […] In contrast, CCR5 tropic HIV-1 variants were not inhibited even in the presence of very high doses of ALB408-423 (500 μg/ml) (FIG. 3B). Due to the specific inhibition of the infection caused by X4-tropic HIV-1 variants, it is to be assumed that ALB408-423 interacts with the chemokine receptor CXCR4.
(§4) Virus stocks were first titrated on TZM-bl cells. Then TZM-bl cells containing 100 μM of peptides were infected with infectivity normalized amounts of X4, dualtropic (X4/R5) or R5 tropic HIV-1.
(§5) FIG. 10. ALB408-423 and truncated ALB derivatives specifically block X4 tropic HIV-1 infection. TZM-bl cells either containing PBS or 100 μM of indicated peptides were infected with normalized infectivities of X4, dualtropic or R5 tropic HIV-1 clones. Infection rates were measured 2 days post infection using the GalScreen assay. Shown are mean values (% of PBS treated control)±standard deviations derived from triplicate measurements.

Experiment [2] deals with dual tropic (CXCR4 and CCR5 using) variant 92ht593.1. In words: Infection of TZM-bl cells by dual tropic HIV-1, GalScreen. It is filed as cell-based. How it is done: as §1, §2, §3, §4, §5
The target in the next experiment is T1, CXCR1 (Homo sapiens, UniProt P25024).
T1 sequence (P25024 1-350): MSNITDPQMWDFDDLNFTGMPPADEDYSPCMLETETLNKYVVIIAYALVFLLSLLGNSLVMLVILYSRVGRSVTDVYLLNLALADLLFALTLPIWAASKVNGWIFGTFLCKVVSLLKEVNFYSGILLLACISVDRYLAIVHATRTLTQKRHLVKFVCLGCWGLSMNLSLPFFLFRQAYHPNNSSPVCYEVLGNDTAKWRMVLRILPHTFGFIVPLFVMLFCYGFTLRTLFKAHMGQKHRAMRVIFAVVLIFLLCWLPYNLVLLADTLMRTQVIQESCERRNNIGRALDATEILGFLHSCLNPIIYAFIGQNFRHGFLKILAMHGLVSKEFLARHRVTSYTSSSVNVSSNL
In words: Ca2+ mobilization in HEK EGFP-CXCR1 cells (indo-1). The note with it: 50 μM peptide. Background: Calcium assays in cells follow changes in intracellular calcium, usually with a dye or a luminescent sensor.

A further experiment has as its target CXCR4 (Homo sapiens, UniProt P61073). Put plainly: Ca2+ mobilization in CXCR4 expressing HEK293 cells (indo-1). It is filed as cell-based. Also noted: expressed in transfected cells. Here is the method: Ca^2+ responses were recorded.
FIG. 17. CXCR4 antagonistic activities of ALB derivatives. […] CXCR4 or CCR5 expressing HEK293 cells were treated with CXCR4 agonist CXCL12 (10 nM) or CCR5 agonist CCL5 (20 nM), respectively, in the absence (no ALB) or presence of indicated ALB derivatives (50 μM). Calcium responses were recorded as described. Data shown are mean values±standard deviation derived from duplicates relative to peak calcium responses after treatment with agonists only (100%). […] CXCR4 expressing HEK293 cells were treated with Texas Red labeled CXCL12 (CXCL12-Tr) in the presence or absence of ALB peptides. Real-time fluorescence monitoring of ligand-receptor interactions was carried out as described. Shown are bound CXCL12-Tr levels in the presence of ALB peptides relative to CXCL12-Tr only treated cells (100% bound). Values were derived from a duplicate experiment.

Experiment [3] relates to Jurkat T cells expressing CXCR4. In words: CXCL12 mediated migration of Jurkat T cells, transwell. The note with it: 360 μg/ml, 2 h. The class given is cell-based. Here is the method: CXCL12-CXCR4 signaling plays a crucial role in several diseases such as HIV/AIDS, cancer, leukemia and arthritis. CXCL12 expressing organs, tissues or cells can attract CXCR4 expressing tumor cells and allow metastasis. To investigate whether ALB408-423 is able to inhibit CXCL12 mediated tumor cell migration, migration assays were performed using Jurkat T cells expressing CXCR4 as model system (Princen et al., 2004, J.Virol. 78: 12996-13006). Jurkat T cells were suspended at 0.4×106 (200 μl) in medium containing 10% FBS, then the cell suspension (200 μl) was added to the upper compartment of 5 μm pore filter devices (Transwell, 24-well cell culture, Costar). Then, 600?l culture medium with or without CXCL12 (100 ng/ml) was added to the lower compartment allowing attraction of cells from the upper compartment. […] After incubation, plates were removed and 100 μl of cells that migrated to the lower compartment were either counted directly using a counting chamber or analyzed using a proliferation assay (CellTiter-Glo® Reagent, PROMEGA) as recommended by the manufacturer. […]
FIG. 16. […] After 2 hrs incubation at 37° C., the number of migrated cells in the lower compartment was detected by measuring intracellular ATP levels using CellTiter-Glo® Luminescent Cell Viability Assay kit (PROMEGA). […]

Experiment [4] concerns X4 tropic HIV-1 variants NL4-3, P51-Sc, P59-S/27 and P34-S. The note with it: TZM-bl cells. Here is the method: as §1, §2, §3, §4, §5

Ends that are not written are not given here.

CXCR4, sequence (P61073 whole entry): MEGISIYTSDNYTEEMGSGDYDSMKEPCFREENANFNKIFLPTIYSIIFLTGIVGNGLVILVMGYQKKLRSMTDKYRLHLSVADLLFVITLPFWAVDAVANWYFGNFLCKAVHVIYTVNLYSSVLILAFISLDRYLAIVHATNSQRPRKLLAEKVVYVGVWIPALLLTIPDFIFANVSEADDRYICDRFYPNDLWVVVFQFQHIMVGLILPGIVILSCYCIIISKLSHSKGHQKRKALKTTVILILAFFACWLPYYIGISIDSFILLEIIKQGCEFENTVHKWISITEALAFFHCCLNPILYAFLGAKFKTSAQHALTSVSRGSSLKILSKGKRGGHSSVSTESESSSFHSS
Protocol for CXCR1: Intracellular Ca^2+ release measurement was carried out as described (Palanche et al., 2001, JBC 276:34853-34861; Vollmer et al., 1999, JBC 274:37915-37922) using indo-1 acetoxymethyl ester as the calcium probe. Cellular responses were recorded at 37° C. in stirred 1 mL cuvette with excitation set at 355 nm and emission set at 405 nm and 475 nm using a spectrofluorimeter. The human chemokines CCL5 and CXCL8 were purchased from Becton Dickinson Biosciences (San Jose, Calif.).
Intracellular Ca^2+ responses were measured using a spectrofluorimeter.
Values shown are mean calcium peak responses from duplicate experiments relative to chemokine only treated cells (100%).
Ca^2+ responses were recorded. […] In order to gain insight into compound selectivity, we next characterized the effect of the peptide on calcium responses of various chemokine/receptor pairs.

In the case of “LVRYTKKVPQVSTPTL [ALB408-423, LVRYTKKVPQVSTPTL]”, in experiment [1] (100 μM peptide), the “effect on R5 tropic HIV-1 infection” value is on record as “no effect”. In addition, the “inhibition of CCR5 tropic HIV-1 variants” value in experiment [1] (500 μg/ml) was “not inhibited”. The “inhibition of dualtropic HIV-1 clone 92ht593.1” value in experiment [2] (100 μM peptide) is “only moderately”. Further, the “inhibition of dual tropic variant 92ht593.1” value in experiment [2] (serial dilutions, compared with X4 tropic variants) is recorded as “blocked less efficiently”. The “effect on CXCL8-evoked calcium responses” value at CXCR1 (HEK EGFP-CXCR1 cells) is “no effect”. The “agonism: calcium response induced by the peptide alone, CXCR1” value on CXCR1 (no chemokine) was “does not induce any calcium response”. The sequence also showed an inhibition constant (Ki) at CXCR4 of 46.4 µM. Also, the “inhibition of CXCL12-evoked calcium responses” value at CXCR4 (50 μM peptide, HEK EGFP-CXCR4 cells) was determined as 70%. Further, the “agonism: calcium response induced by the peptide alone, CXCR4” value at CXCR4 (50 μM peptide, no chemokine) is reported as “does not induce any calcium response”. The “block of CXCL12 induced cell migration” value in experiment [3] is reported as “almost completely”. Further, in experiment [4] (0.5 ng p24, 3 days, synthetic peptide), the “mean IC50 over all analyzed X4-tropic HIV-1 variants” value was found to be 24.2 µg/mL. The “block of infection by X4 tropic HIV-1 clones (NL4-3, P51-Sc, P34-s)” value in experiment [4] (100 μM peptide) is given as “almost completely”.
